Assay results published in patent US9556139B2, “6-substituted phenoxychroman carboxylic acid derivatives” (Array BioPharma Inc., priority 2008, dated 2017).

Each compound was assayed against human DP2 (Homo sapiens (Human), UniProt Q9Y5Y4) (assay: DP-2 Binding Inhibition Assay (3H-PGD2 binding to membranes of K562 cells expressing DP2)). Details: EC50 (Nm) 1% HSA, inhibition of 3H-PGD2 binding, 1% HSA.
How it was run: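 Radioligand filtration binding: ³H-PGD2 displacement from DP2-expressing K562 cell membranes, 60 min, room temperature, pH 7.4, under 0.1% BSA, 1% HSA or 4% HSA.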

human DP2, sequence (Q9Y5Y4 whole entry): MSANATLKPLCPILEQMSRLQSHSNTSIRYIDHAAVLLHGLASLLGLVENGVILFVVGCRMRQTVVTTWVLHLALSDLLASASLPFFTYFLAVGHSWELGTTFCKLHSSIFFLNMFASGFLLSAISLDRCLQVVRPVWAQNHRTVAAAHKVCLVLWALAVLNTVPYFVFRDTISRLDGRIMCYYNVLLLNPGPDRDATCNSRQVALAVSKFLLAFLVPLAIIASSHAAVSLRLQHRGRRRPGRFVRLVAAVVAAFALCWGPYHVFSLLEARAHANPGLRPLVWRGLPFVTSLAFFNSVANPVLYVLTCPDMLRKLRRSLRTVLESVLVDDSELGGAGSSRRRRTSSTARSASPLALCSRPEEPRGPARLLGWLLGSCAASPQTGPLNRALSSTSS

Row | Compound | EC50 [nM]
1 | O=C(NCCc1ccc(Cl)cc1)c1ccc(Oc2cc3c(cc2Cl)C(C(=O)O)CCO3)cc1 (single isomer, unassigned) [Example 11 Enantiomer 2, 6-Chloro-7-(4-(4-chlorophenethylcarbamoyl)phenoxy)chroman-4-carboxylic acid] | 9.3

Same assay, conditions: EC50 (nM) 4% HSA, inhibition of 3H-PGD2 binding, 4% HSA

Row | Compound | EC50 [nM]
2 | O=C(NCCc1ccc(Cl)cc1)c1ccc(Oc2cc3c(cc2Cl)C(C(=O)O)CCO3)cc1 (single isomer, unassigned) [Example 11 Enantiomer 2, 6-Chloro-7-(4-(4-chlorophenethylcarbamoyl)phenoxy)chroman-4-carboxylic acid] | 111

Same assay, conditions: assay described in Example A

Row | Compound | relative activity of the enantiomers in the DP2 binding inhibition assay
3 | O=C(NCCc1ccc(Cl)cc1)c1ccc(Oc2cc3c(cc2Cl)C(C(=O)O)CCO3)cc1 (single isomer, unassigned) [Example 11 Enantiomer 2, 6-Chloro-7-(4-(4-chlorophenethylcarbamoyl)phenoxy)chroman-4-carboxylic acid] | more potent DP2 binding enantiomer

Same assay, conditions: read-out: EC50 (Nm) 1% HSA; inhibition of 3H-PGD2 binding, 1% HSA

Row | Compound | EC50 [nM]
4 | N#Cc1cc2c(cc1Oc1ccc(C(=O)Nc3ccc(Cl)c(Cl)c3)cc1)OCCC2C(=O)O (stereo not drawn) [Example 8, 6-Cyano-7-(4-(3,4-dichlorophenylcarbamoyl)phenoxy)chroman-4-carboxylic acid] | 16
5 | COc1cc(C2CC2)ccc1CCNC(=O)c1ccc(Oc2cc3c(cc2Cl)C(C(=O)O)CCO3)cc1 (stereo not drawn) [Example 36, Sodium 6-chloro-7-(4-(4-cyclopropyl-2-methoxyphenethylcarbamoyl)phenoxy)chroman-4-carboxylate] | 17.3
6 | N#Cc1cc2c(cc1Oc1ccc(C(=O)NCCc3cccc4ccccc34)cc1)OCCC2C(=O)O (stereo not drawn) [Example 55, 6-Cyano-7-(4-(2-(naphthalen-1-yl)ethylcarbamoyl)phenoxy)chroman-4-carboxylic acid] | 12.1
7 | N#Cc1cc2c(cc1Oc1ccc(C(=O)NCc3cccc4ccccc34)cc1)OCCC2C(=O)O (stereo not drawn) [Example 54, 6-Cyano-7-(4-(naphthalen-1-ylmethylcarbamoyl)phenoxy)chroman-4-carboxylic acid] | 109
8 | CC(Cc1ccc(Cl)cc1)NC(=O)c1ccc(Oc2cc3c(cc2C#N)C(C(=O)O)CCO3)cc1 (stereo not drawn) [Example 132, 7-(4-(1-(4-Chlorophenyl)propan-2-ylcarbamoyl)phenoxy)-6-cyanochroman-4-carboxylic acid] | 37.4
9 | N#Cc1cc2c(cc1Oc1ccc(C(=O)NCCc3ccc4ccccc4c3)cc1)OCCC2C(=O)O (stereo not drawn) [Example 56, 6-Cyano-7-(4-(2-(naphthalen-2-yl)ethylcarbamoyl)phenoxy)chroman-4-carboxylic acid] | 14.2

Same assay, conditions: read-out: EC50 (nM) 4% HSA; inhibition of 3H-PGD2 binding, 4% HSA

Row | Compound | EC50 [nM]
10 | COc1cc(C2CC2)ccc1CCNC(=O)c1ccc(Oc2cc3c(cc2Cl)C(C(=O)O)CCO3)cc1 (stereo not drawn) [Example 36, Sodium 6-chloro-7-(4-(4-cyclopropyl-2-methoxyphenethylcarbamoyl)phenoxy)chroman-4-carboxylate] | 93
11 | COc1ccc(CCNC(=O)c2ccc(Oc3cc4c(cc3Cl)C(C(=O)O)CCO4)cc2)cc1OC (stereo not drawn) [Example 141, Sodium 6-chloro-7-(4-(3,4-dimethoxyphenethylcarbamoyl)phenoxy)chroman-4-carboxylate] | 1000
12 | N#Cc1cc2c(cc1Oc1ccc(C(=O)Nc3ccc(-c4ccccc4)cc3)cc1)OCCC2C(=O)O (stereo not drawn) [Example 68, 7-(4-(Biphenyl-4-ylcarbamoyl)phenoxy)-6-cyanochroman-4-carboxylic acid] | 206
13 | N#Cc1cc2c(cc1Oc1ccc(C(=O)Nc3ccc(-c4ccc(Cl)cc4)cc3)cc1)OCCC2C(=O)O (stereo not drawn) [Example 69, 7-(4-(4′-Chlorobiphenyl-4-ylcarbamoyl)phenoxy)-6-cyanochroman-4-carboxylic acid] | 240
14 | O=C(NCC(O)c1ccc(Cl)cc1Cl)c1ccc(Oc2cc3c(cc2Cl)C(C(=O)O)CCO3)cc1 (stereo not drawn) [Example 197, sodium 6-chloro-7-(4-(2-(2,4-dichlorophenyl)-2-hydroxyethylcarbamoyl)phenoxy)chroman-4-carboxylate] | 689
15 | O=C(NCCc1ccc(OC(F)F)cc1)c1ccc(Oc2cc3c(cc2Cl)C(C(=O)O)CCO3)cc1 (stereo not drawn) [Example 223, 6-chloro-7-(4-(4-(difluoromethoxy)phenethylcarbamoyl)phenoxy) chroman-4-carboxylic acid] | 209
16 | CC1(C)CCC(NC(=O)c2ccc(Oc3cc4c(cc3Cl)C(C(=O)O)CCO4)cc2)CC1 (stereo not drawn) [Example 157, 6-Chloro-7-(4-(4,4-dimethylcyclohexylcarbamoyl)phenoxy)chroman-4-carboxylic acid] | 1580
17 | O=C(NCCc1ccccc1-c1ccccc1)c1ccc(Oc2cc3c(cc2Cl)C(C(=O)O)CCO3)cc1 (stereo not drawn) [Example 92, Sodium 7-(4-(2-(biphenyl-2-yl)ethylcarbamoyl)phenoxy)-6-chlorochroman-4-carboxylate] | 111
18 | Cc1cc(Oc2cc3c(cc2Cl)C(C(=O)O)CCO3)ccc1C(=O)NCCc1ccc(Cl)cc1Cl (stereo not drawn) [Example 183, Sodium 6-chloro-7-(4-(2,4-dichlorophenethylcarbamoyl)-3-methylphenoxy)chroman-4-carboxylate] | 968
